What was measured:
Assay in all cases: Dox fluorescence quenching
[1] = tested on: DNA tetrahedron (Td) (DNA, other) ACATTCCTAAGTCTGAAACATTACAGCTTGCTACACGAGAAGAGCCGCCATAGTA/TATCACCAGGCAGTTGACAGTGTAGCAAGCTGTAATAGATGCGAGGGTCCAATAC/TCAACTGCCTGGTGATAAAACGACACTACGTGGGAATCTACTATGGCGGCTCTTC/TTCAGACTTAGGAATGTGCTTCCCACGTAGTGTCGTTTGTATTGGACCCTCGCAT; details: not stated for assay; assembled in 50 mM MgCl2; 3 nM Dox; complete quenching at DNA:Dox molar ratio 0.05; Td assembled in 20 mM Tris-HCl, pH 8.0
[2] = tested on: Apt-Td (aptamer-tetrahedron complex) (DNA, other) AGGAAGAGAGAAGGAAGGGAATTTTTACATTCCTAAGTCTGAAACATTACAGCTTGCTACACGAGAAGAGCCGCCATAGTA/TATCACCAGGCAGTTGACAGTGTAGCAAGCTGTAATAGATGCGAGGGTCCAATAC/TCAACTGCCTGGTGATAAAACGACACTACGTGGGAATCTACTATGGCGGCTCTTC/TTCAGACTTAGGAATGTGCTTCCCACGTAGTGTCGTTTGTATTGGACCCTCGCAT/TTCCCTTCCTTCTCTCTTCCTCTCTCGCAGTTGATCCTTTGGATACCCTG; details: not stated for assay; assembled in 50 mM MgCl2; 3 nM Dox; complete quenching at DNA:Dox molar ratio 0.04; assembled in 20 mM Tris-HCl, pH 8.0
[3] = tested on: MUC1 aptamer (Apt) (DNA, aptamer) GCAGTTGATCCTTTGGATACCCTGG; details: not stated; 3 nM Dox; complete quenching at DNA:Dox molar ratio 1; buffer not stated

Measured: binding

COc1cccc2c1C(=O)c1c(O)c3c(c(O)c1C2=O)C[C@@](O)(C(=O)CO)C[C@@H]3O[C@H]1C[C@H](N)[C@H](O)[C@H](C)O1
yes: [1] | [2] | [3]

— PMC5122387 (2016)
